Source: patent US6290974A, “Protein ingredient for carrying lipophilic nutrients” (priority 1998, dated 2001)
Read-outs that look alike come from different tables or passages of the source.

What was measured:
β-lactoglobulin (β-Lg) [1] = molecular target: T1, β-lactoglobulin (β-Lg) (Bos taurus, UniProt P02754); assay: Fluorescence titration of β-Lg with ligands (Equation [1]; Kd and n); format: binding; settings: for binding affinity, comparative (in words): compared with other ligands of Table 1 or the retinoids
T1 construct: Isolation of β-Lg from Whey; from tissue; host or cells: whey (milk), purified by bioselective adsorption on N-retinyl-Celite
T1 sequence (P02754 17-178): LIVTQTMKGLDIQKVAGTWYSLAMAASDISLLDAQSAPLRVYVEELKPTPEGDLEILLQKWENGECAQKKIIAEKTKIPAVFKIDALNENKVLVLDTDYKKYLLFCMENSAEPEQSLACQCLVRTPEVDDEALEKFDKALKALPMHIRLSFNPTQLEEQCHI
Description: (§1) Fluorescence spectra were recorded at 23 ° C. with a System 3 Scanning Spectrofluorometer (Optical Technology Devices, Inc., Elmsford, N.Y.) using the ratio mode. Excitation and emission spectra were obtained with 1 μM solutions of β-Lg in 50 mM sodium phosphate, pH 7.0, both in the presence and absence of 2 μM concentrations of the various ligands. Titration of β-Lg with the various ligands was quantified by measuring the fluorescence quenching of the protein tryptophanyl residues (excitation at 287 nm, emission measured at 332 nm). The spectrofluorometer cuvette contained 2.5 ml of 1 μM β-Lg in the phosphate buffer to which 2.5-μl increments of the ligand solution in ethanol or ethyl ether were added with a micropipette. Dufour et al., (1990) FEBS Lett. 277, 223. […] Cogan et al., (1976) Eur. J. Biochem. 65, 71.
(§2) The titration can also be followed by measuring the increase in vitamin D or cholesterol fluorescence that was due to energy transfer from the tryptophanyl residue. Thus, with excitation at 287 nm, emission was measured at 412 nm for vitamin D or 390 nm for cholesterol.
The titration data can be used to evaluate the equilibrium dissociation constant and the number of binding sites per monomer as has been previously described. Cogan et al., (1976) Eur. J. Biochem. 65, 71; Dufour and Haertle, (1991) Biochim. Biophys. Acta 1079, 316; Wang et al., (1997) J. Dairy Sci. 80, 1047. The linear regression equation
(§3) PT a=(1/n)[RT a/(1-a)]-Kd /n
(§4) is used to calculate n, the number of binding sites per molecule of protein and Kd, the apparent dissociation constant. In this equation, PT is total protein concentration, and RT is total ligand concentration.
Cho et al., (1994) J. Biol. Chem. 269, 11102; Dufour and Haertle, (1991) Biochim. Biophys. Acta 1079, 316; Wang et al., (1997) J. Dairy Sci. 80, 1047. […] Cho et al., (1994) J. Biol. Chem. 269, 11102; Dufour and Haertle, (1991) Biochim. Biophys. Acta 1079, 316; Wang et al., (1997) J. Dairy Sci. 80, 1047.
(§5) Possible binding of vitamin D3 to β-Lg was also investigated by recording the fluorescence emission at 412 nm as a function of the excitation wavelength for vitamin solutions with and without added β-Lg (FIG. 4). […] In a titration experiment, the protein fluorescence at 332 nm with excitation at 287 nm was determined as a function of vitamin D3 concentration (FIG. 3). […] Also, the increase of vitamin D3 fluorescence at 412 nm with excitation at 287 nm for varying vitamin concentrations can be plotted according to Equation [1] as shown in FIG. 5B.
Dufour and Haertle, (1991) Biochim. Biophys. Acta 1079, 316; Wang et al., (1997) J. Dairy Sci. 80, 1047.
The potential binding of both cholesterol and 7-dehydrocholesterol to β-Lg was examined by fluorescence spectroscopy, essentially as described above for vitamin D (Example 3).
The titration data were used to calculate the equilibrium dissociation constant (Kd) and the number of binding sites per β-Lg monomer (n), as described in Example 3.

β-lactoglobulin (β-Lg) [2] = molecular target: T1, β-lactoglobulin (β-Lg); assay: Fluorescence emission/excitation spectra of β-Lg with and without ligand; format: binding
Description: as §1, §2
Binding of hydrophobic ligands in proximity to Trp19 results in energy transfer between this protein residue and the ligand, and thus changes in the fluorescence emission spectra can be used to follow complex formation. Fluorescence emission spectra of β-Lg with and without bound vitamin D2 that result from excitation of tryptophanyl residues at 287 nm are shown in FIG. 1.
as §5
The potential binding of both cholesterol and 7-dehydrocholesterol to β-Lg was examined by fluorescence spectroscopy, essentially as described above for vitamin D (Example 3). […] A plot of the data that were obtained with varying cholesterol concentrations according to Equation [1] from Example 3 was similar to that for vitamin D3, shown in FIG. 5.
Studies were undertaken to evaluate whether other fat-soluble vitamins bind to β-Lg. Fluorescence emission spectra of β-Lg in the presence and absence of vitamin E, vitamin K1, or vitamin K2 were obtained essentially as described in Example 3.

β-lactoglobulin (β-Lg) [3] = molecular target: T1, β-lactoglobulin (β-Lg); assay: Fluorescence titration of β-Lg with linoleic acid, conjugated linoleic acid and its methyl ester (Trp19 enhancement); format: binding; settings: 10 μM β-Lg
Source text: The titration data can be used to evaluate the equilibrium dissociation constant and the number of binding sites per monomer as has been previously described. […] Biophys. […] The linear regression equation
as §3, §4

β-lactoglobulin (β-Lg) [4] = molecular target: T1, β-lactoglobulin (β-Lg); settings: cited from earlier work
[5] = 1 μM β-Lg, 50 mM phosphate pH 7.0, 23 °C, triplicate titrations (vitamin D2: five; ergosterol: single)
[6] = 1 μM β-Lg, 50 mM phosphate pH 7.0, 23 °C, triplicate titrations (vitamin D2: five; ergosterol: single), read-out: Kd (apparent dissociation constant), Table 1
[7] = Kd, Table 2, β-Lg titration as in Example 3

## CCCCCCCCCCCCCCCC(=O)OC/C=C(C)/C=C/C=C(C)/C=C/C1=C(C)CCCC1(C)C [Retinyl palmitate (P), Retinyl palmitate]
β-lactoglobulin (β-Lg) [1]; β-Lg titration as in Example 3
  n, Table 2: 1.2 mol/mol β-LG

## C=C1CC[C@H](O)C/C1=C/C=C1\CCC[C@]2(C)[C@@H]([C@H](C)/C=C/[C@H](C)C(C)C)CC[C@@H]12 [Vitamin D2, ergocalciferol]
β-lactoglobulin (β-Lg) [1]
  mol bound per mol of protein (Example 4): 2 mol~mol^-1
  binding affinity, comparative (in words): significantly greater
β-lactoglobulin (β-Lg) [1]; [5]
  n (number of binding sites per molecule of protein), Table 1: 2.00 mol/mol of protein
β-lactoglobulin (β-Lg) [1]; [6]
  Kd: 4.91 nM
β-lactoglobulin (β-Lg) [1]; 1 μM β-Lg, emission 332 nm
  ligand concentration at which fluorescence quenching appeared to reach a maximum: ~2 µM
β-lactoglobulin (β-Lg) [1]; compared with vitamin A and other retinoids
  affinity of β-Lg relative to that for vitamin A and other retinoids (greater by): about 10 fold
β-lactoglobulin (β-Lg) [1]; quenching at 332 nm, excitation 287 nm, five titrations, 1 μM β-Lg
  n: 2.00±0.16
β-lactoglobulin (β-Lg) [1]; quenching at 332 nm, excitation 287 nm, five titrations, 1 μM β-Lg, read-out: Kd
  Kd: 4.91 ± 3.28 nM
β-lactoglobulin (β-Lg) [1]; β-Lg titration as in Example 3
  n, Table 2: 2.0 mol/mol β-LG
β-lactoglobulin (β-Lg) [1]; β-Lg titration as in Example 3, read-out: Kd, Table 2
  Kd: 4.9 nM
β-lactoglobulin (β-Lg) [2]
  β-Lg fluorescence, 300 to 360 nm: quenched
β-lactoglobulin (β-Lg) [2]; 2 μM ligand, 1 μM β-Lg, pH 7.0, 23 °C
  ligand fluorescence at 412 nm with excitation around 287 nm in presence of β-Lg: increased

## CCCCC/C=C\C/C=C\CCCCCCCC(=O)O [LA, linoleic acid]
β-lactoglobulin (β-Lg) [3]; 27 °C, read-out: order of Kd (text, Example 7)
  Kd: ~100 nM
β-lactoglobulin (β-Lg) [3]; pH 7, 27 °C, enhancement at 332 nm, excitation 287 nm
  n, Table 3: 1.01 mol/mol β-LG
β-lactoglobulin (β-Lg) [3]; pH 7, 27 °C, enhancement at 332 nm, excitation 287 nm, read-out: Kd, Table 3
  Kd: 143 nM
β-lactoglobulin (β-Lg) [4]; From Frapin et al., J. Protein Chem. 12, 443 (1993)
  n, Table 3, from Frapin et al.: 0.83 mol/mol β-LG
β-lactoglobulin (β-Lg) [4]; From Frapin et al., J. Protein Chem. 12, 443 (1993), read-out: Kd, Table 3, from Frapin et al.
  Kd: 190 nM

## CCCCCCCCCCCCCCCC(=O)OC/C=C(C)/C=C/C=C(C)/C=C/C1=C(C)CCCC1(C)C [Retinyl palmitate (R), Retinyl palmitate]
β-lactoglobulin (β-Lg) [1]; β-Lg titration as in Example 3
  n, Table 2: 0.8 mol/mol β-LG

## Cc1c(C)c2c(c(C)c1O)CCC(C)(CCCC(C)CCCC(C)CCCC(C)C)O2 (stereo not drawn) [Vitamin E, α-tocopherol]
β-lactoglobulin (β-Lg) [1]
  n values, molecules bound per β-Lg monomer (Example 6): 1
β-lactoglobulin (β-Lg) [1]; Kd values (Example 6)
  Kd: 91 nM
β-lactoglobulin (β-Lg) [1]; [7]
  Kd: 91 nM
β-lactoglobulin (β-Lg) [1]; order of magnitude of Kd (Example 6)
  Kd: ~1 nM
β-lactoglobulin (β-Lg) [1]; β-Lg titration as in Example 3
  n, Table 2: 1.0 mol/mol β-LG
β-lactoglobulin (β-Lg) [2]
  β-Lg fluorescence, 280 to 300 nm: increase
  β-Lg fluorescence, 300 to 360 nm: no change

## CC1=C(/C=C/C(C)=C/C=C/C(C)=C/C(=O)O)C(C)(C)CCC1 [Retinoic acid, retinoic acid]
β-lactoglobulin (β-Lg) [1]; [7]
  Kd: 17 nM
β-lactoglobulin (β-Lg) [1]; β-Lg titration as in Example 3
  n, Table 2: 0.9 mol/mol β-LG

## CC(C)[C@@H](C)/C=C/[C@@H](C)[C@H]1CC[C@H]2C3=CC=C4C[C@@H](O)CC[C@]4(C)[C@H]3CC[C@]12C [Ergosterol, ergosterol]
β-lactoglobulin (β-Lg) [1]
  mol bound per mol of protein (Example 4): 2 mol~mol^-1
  binding affinity, comparative (in words): significantly greater
β-lactoglobulin (β-Lg) [1]; [5]
  n (number of binding sites per molecule of protein), Table 1: 2.02 mol/mol of protein
β-lactoglobulin (β-Lg) [1]; [6]
  Kd: 6.25 nM

## Cc1c2ccncc2c(C)c2c1[nH]c1ccccc12 [ellipticine]
β-lactoglobulin (β-Lg) [4]; in vitro
  binding to β-Lg reported (in words): reported to bind
